# Results as given in ChEMBL document CHEMBL1201862, “PubChem BioAssay data set” (2004).
# Calls of active or inactive are those of the source.
# What was measured:
# [1] = molecular target: T1, Protein RecA (Mycobacterium tuberculosis, UniProt P9WHJ3); assay: Fluorescence Cell-Free Homogeneous Dose Retest to Identify Inhibitors of RecA-Intein Splicing Activity. [Related pubchem assays (depositor defined):AID2097, AID2223, AID489010, AID492950]; type: functional
# T1 sequence (P9WHJ3 whole entry): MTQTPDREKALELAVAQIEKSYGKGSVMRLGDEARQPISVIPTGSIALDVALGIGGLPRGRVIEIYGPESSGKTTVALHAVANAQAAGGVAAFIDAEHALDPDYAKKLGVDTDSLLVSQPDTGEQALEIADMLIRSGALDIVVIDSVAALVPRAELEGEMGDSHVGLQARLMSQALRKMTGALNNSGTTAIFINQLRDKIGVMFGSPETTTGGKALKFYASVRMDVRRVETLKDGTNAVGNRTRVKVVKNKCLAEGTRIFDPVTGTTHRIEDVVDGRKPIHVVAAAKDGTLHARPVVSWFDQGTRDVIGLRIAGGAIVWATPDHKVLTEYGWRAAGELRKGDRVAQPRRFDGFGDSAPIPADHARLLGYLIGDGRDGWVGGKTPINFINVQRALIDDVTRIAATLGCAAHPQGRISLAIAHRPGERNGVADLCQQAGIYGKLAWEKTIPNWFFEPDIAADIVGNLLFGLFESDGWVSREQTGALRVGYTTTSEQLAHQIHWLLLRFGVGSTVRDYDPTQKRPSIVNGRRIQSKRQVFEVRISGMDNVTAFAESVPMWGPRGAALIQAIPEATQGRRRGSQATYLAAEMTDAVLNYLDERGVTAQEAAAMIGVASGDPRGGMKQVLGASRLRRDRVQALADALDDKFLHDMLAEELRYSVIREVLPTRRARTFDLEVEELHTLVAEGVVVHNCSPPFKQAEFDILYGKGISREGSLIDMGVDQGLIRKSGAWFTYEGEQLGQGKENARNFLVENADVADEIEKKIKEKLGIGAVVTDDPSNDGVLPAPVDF
# [2] = molecular target: T2, Replicative DNA helicase DnaB (Mycobacterium tuberculosis, UniProt P9WMR3); assay: DnaB intein splicing inhibitors, dose response, biochemical, cell-free fluorescence (AID 449749); type: functional
# T2 sequence (P9WMR3 whole entry): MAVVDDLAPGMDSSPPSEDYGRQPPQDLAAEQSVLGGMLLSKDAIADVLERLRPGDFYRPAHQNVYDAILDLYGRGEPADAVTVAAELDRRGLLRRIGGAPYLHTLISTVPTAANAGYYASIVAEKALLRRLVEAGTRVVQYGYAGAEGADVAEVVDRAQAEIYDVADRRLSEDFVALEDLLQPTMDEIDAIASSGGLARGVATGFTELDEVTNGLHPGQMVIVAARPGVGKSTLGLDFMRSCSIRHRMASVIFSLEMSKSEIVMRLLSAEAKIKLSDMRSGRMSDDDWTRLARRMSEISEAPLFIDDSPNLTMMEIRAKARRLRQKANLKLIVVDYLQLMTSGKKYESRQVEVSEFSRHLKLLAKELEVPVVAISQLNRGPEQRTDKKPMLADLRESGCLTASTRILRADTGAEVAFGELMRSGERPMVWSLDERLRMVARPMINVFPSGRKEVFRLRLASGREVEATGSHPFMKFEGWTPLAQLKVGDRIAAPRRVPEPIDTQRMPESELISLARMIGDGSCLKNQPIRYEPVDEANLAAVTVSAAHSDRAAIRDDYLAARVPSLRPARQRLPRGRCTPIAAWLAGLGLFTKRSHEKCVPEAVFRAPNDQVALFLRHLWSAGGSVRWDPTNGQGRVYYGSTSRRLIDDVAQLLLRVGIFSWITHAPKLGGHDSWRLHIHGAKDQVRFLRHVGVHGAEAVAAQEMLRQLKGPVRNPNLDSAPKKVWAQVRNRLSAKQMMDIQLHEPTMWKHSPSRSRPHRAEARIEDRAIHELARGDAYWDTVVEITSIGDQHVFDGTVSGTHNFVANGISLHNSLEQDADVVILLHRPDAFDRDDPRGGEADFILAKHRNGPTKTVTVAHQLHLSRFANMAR
# [3] = Luminescence Cell-Based Dose Confirmation HTS to Identify Activators of 5'UTR Stem-Loop Driven Alpha-Synuclein mRNA Translation in H4 Neuroglioblastoma Cells. [Related pubchem assays: 1829 (Project Summary), 1814 (Primary HTS)]; type: functional
# [4] = tested on: H4; assay: Luminescence Cell-Based Dose Response HTS to Identify Activators of 5'UTR Stem-Loop Driven Prion Protein mRNA Translation in H4 Neuroglioblastoma Cells. [Related pubchem assays: 1829 (Project Summary), 1814 (Primary HTS)]; type: functional; conditions: Homo sapiens
# [5] = Luminescence Cell-Based Dose Response HTS to Identify Activators of Luciferase Translation or Activity in H4 […] Cells. [Related pubchem assays: 1829 (Project Summary), 1814 (Primary HTS)]; type: functional
# [6] = cells; type: functional
# [7] = molecular target: T3, Rac GTPase-activating protein 1 (Homo sapiens, UniProt Q9H0H5); assay: blockers of MgcRacGAP-driven Rac1 GTP hydrolysis – biochemical, ADP Hunter fluorescence, primary and confirmatory, confirmation (AID 624330); type: functional
# T3 sequence (Q9H0H5 whole entry): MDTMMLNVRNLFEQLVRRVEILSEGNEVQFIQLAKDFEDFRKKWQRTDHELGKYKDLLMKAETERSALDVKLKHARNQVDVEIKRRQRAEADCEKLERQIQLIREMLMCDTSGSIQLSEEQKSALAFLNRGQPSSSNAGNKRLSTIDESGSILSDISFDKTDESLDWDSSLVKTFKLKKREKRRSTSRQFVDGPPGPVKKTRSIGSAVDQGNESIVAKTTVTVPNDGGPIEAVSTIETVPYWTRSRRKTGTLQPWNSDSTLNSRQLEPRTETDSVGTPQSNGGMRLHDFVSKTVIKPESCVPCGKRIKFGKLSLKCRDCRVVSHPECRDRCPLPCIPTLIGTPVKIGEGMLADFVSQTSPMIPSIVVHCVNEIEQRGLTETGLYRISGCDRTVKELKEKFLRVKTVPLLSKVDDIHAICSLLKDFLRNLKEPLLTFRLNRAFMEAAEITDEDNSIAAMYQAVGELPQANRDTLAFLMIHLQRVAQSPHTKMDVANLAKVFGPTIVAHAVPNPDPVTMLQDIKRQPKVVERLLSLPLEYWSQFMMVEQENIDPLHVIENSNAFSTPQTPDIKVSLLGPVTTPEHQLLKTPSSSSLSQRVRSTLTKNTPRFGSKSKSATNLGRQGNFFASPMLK
# [8] = viability of PTEN-deleted HCT116 cells – cell-based, HCT116 PTEN knockout, dose response (AID 1047); type: functional;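 also: HCT116 colon tumor cells with PTEN knocked out; cells exposed to compound for 60 hours before readout; potency for loss of cell viability measured by luminescence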
# [9] = reduction of Shn3 3'UTR-driven luciferase in osteoblasts – cell-based, Clone20 osteoblasts, firefly luciferase, cherry-picked, dose response (AID 624132); type: functional;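 also: firefly luciferase luminescence from reporter carrying the Shn3 3'UTR in osteoblasts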
# [10] = loss of viability in HepG2 cells – cell-based, CellTiter-Glo, cherry-picked, cytotoxicity control for Shn3 inhibitor project, dose response (AID 624134); type: functional
# [11] = non-specific 3'UTR reporter inhibition in Clone20-Shn3RL – cell-based, Renilla luciferase, cherry-picked, counter-screen for Shn3 inhibitor project, dose response (AID 624133); type: functional
# [12] = tested on: Streptococcus sp. 'group A'; assay: Streptococcus pyogenes SK(-)GAS viability under kanamycin – luminescence, BacTiterGlo, confirmation, counter-screen for streptokinase expression inhibitor project, dose response (AID 1900); type: functional, organism-based
# [13] = tested on: Streptococcus; assay: GAS UMAA2166 growth inhibition – luminescence, BacTiterGlo, counter-screen for streptokinase expression inhibitor project, dose response (AID 1915); type: functional, organism-based;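 also: potency for reduction of bacterial viability or growth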
# [14] = molecular target: T4, Streptokinase A (Streptococcus pyogenes serotype M1, UniProt P10520); assay: viability-normalized secreted streptokinase activity reduction – plasminogen activation absorbance, OD405, dose response (AID 1914); type: functional, Streptococcus pyogenes M1 GAS;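 also: secreted streptokinase activity via plasminogen activation per viability signal from cell pellet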
# T4 sequence (P10520 whole entry): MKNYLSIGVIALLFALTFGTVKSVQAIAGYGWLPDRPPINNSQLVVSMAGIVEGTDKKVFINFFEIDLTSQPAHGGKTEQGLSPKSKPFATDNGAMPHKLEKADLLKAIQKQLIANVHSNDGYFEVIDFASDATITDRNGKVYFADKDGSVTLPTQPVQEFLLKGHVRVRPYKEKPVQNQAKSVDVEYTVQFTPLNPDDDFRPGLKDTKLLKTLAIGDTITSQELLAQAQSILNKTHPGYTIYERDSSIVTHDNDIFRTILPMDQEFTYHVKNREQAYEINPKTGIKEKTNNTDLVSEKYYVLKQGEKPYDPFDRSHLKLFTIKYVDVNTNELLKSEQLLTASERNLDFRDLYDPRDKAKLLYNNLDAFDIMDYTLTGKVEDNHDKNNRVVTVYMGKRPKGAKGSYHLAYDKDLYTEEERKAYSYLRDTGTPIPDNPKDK
smiles,measurement,setting,value
COC1(OC)C(/C=C/c2ccc(C)cc2)C(C#N)(C#N)C1(OC)OC (stereo not drawn),EC50,[1],> 380 µM (inactive)
same,AC50,[2],> 380 µM (inactive)
CC(C)(C)c1ccc(C(=O)C2CCCN(Cc3ccon3)C2)cc1 (stereo not drawn),EC50,[3],14.6 µM (active)
same,EC50,[4],17.2 µM (active)
same,EC50,[5],18.3 µM (active)
Cc1ccccc1N1CCN(Cc2ccc([N+](=O)[O-])o2)CC1,IC50,[6],0.73 µM (active)
Cc1ccc2[nH]c3c(c2c1)CN(C(=O)CN1CCSCC1)CC3,EC50,[1],0.132 µM (active)
same,AC50,[2],> 380 µM (inconclusive)
Cc1ccc(S(=O)(=O)NC(=Nc2ccccn2)c2ccc(Cl)cc2)cc1,EC50,[3],> 120 µM (not active)
same,EC50,[4],> 120 µM (not active)
same,EC50,[5],34.8 µM (active)
O=C(Oc1ccccc1)c1cc2ccccc2o1,IC50,[6],18.4 µM (active)
O=C(Oc1ccccc1)c1ccc(COC(=O)c2cnccn2)cc1,IC50,[6],6.29 µM (active)
COCc1nc(-c2ccc(-c3ccc(C)cc3)nc2OC)no1,EC50,[3],> 120 µM (not active)
same,EC50,[4],14.2 µM (active)
same,EC50,[5],76 µM (active)
Cc1cc(C)nc(Nc2n[nH]c(-c3ccccc3Cl)n2)n1,EC50,[3],12.3 µM (active)
same,EC50,[4],52.7 µM (inconclusive)
same,EC50,[5],19.8 µM (active)
CN(CCC#N)C(=O)Cn1nc(Cc2ccncc2)c2ccccc2c1=O,EC50,[1],> 380 µM (inactive)
same,AC50,[2],> 380 µM (inactive)
COc1ccc2nc(N3C(=O)C(O)=C(C(=O)c4ccco4)C3c3ccccc3OC)sc2c1 (stereo not drawn),EC50,[3],> 120 µM (not active)
same,EC50,[4],32.4 µM (active)
same,EC50,[5],> 120 µM (not active)
COC(=O)COc1cccc(NC(=O)c2ccc(Cl)cc2)c1,IC50,[6],2.8 µM (active)
O=C(N/N=C/c1ccc(O)cc1)c1cccc(C(F)(F)F)c1,IC50,[6],38.6 µM (active)
same,IC50,[7],83.9 µM (active)
CCCCNC(=O)Nc1c(C(=O)OC)[nH]c2ccc(C)cc12,EC50,[8],37.7 µM (active)
O=C(Nc1ccc(-c2nc3ccccc3o2)cc1)c1cccnc1,EC50,[8],23.3 µM (active)
CCOC(=O)c1cc2cc3ccccc3cc2oc1=O,IC50,[6],10.9 µM (active)
CCOc1ccc2nc(NC(=O)CSc3nc(SC)ns3)sc2c1,EC50,[3],12.7 µM (active)
same,EC50,[4],47.5 µM (active)
same,EC50,[5],8.43 µM (active)
N#Cc1cc(-c2ccccc2)[nH]c1-c1nccc2ccccc12,AC50,[9],3.42 µM (active)
same,AC50,[10],48.7 µM (active)
same,AC50,[11],9.62 µM (active)
C/C(=N\NC(=O)c1c(Cl)cnn1C)c1ccc(NC(=O)c2ccc(Br)o2)cc1,EC50,[3],6.11 µM (active)
same,EC50,[4],28.4 µM (active)
same,EC50,[5],6.56 µM (active)
Cn1c(SCC(=O)NCC2CCCO2)ncc(C(=O)Nc2ccc(Cl)cc2)c1=O (stereo not drawn),EC50,[1],1.13 µM (active)
same,AC50,[2],> 380 µM (inactive)
CCO/C(O)=C1\C(C)=NC(SCc2cc(O)[nH]n2)=C(C#N)C1c1cccs1 (stereo not drawn),EC50,[1],4.99 µM (active)
same,AC50,[2],6.16 µM (active)
CC/C(=C/c1ccccc1)c1cccc2[nH]c3c(OC)cccc3c12,AC50,[9],32.8 µM (active)
same,EC50,[12],1.87 µM (active)
same,AC50,[10],> 70 µM (inactive)
same,EC50,[13],4.75 µM (active)
same,AC50,[11],19 µM (active)
same,EC50,[14],19.6 µM (active)
CCCCOC(=O)C1CCCC(C(=O)OCCCC)N1 (stereo not drawn),IC50,[6],16.6 µM (active)
O=C1C(Cl)=C(NCCCN2CCOCC2)C(=O)N1CCc1ccccc1,EC50,[3],6.1 µM (active)
same,EC50,[4],45.1 µM (active)
same,EC50,[5],15.3 µM (active)
O=C1c2ccccc2-c2nnc(-c3ccc(O)cc3)cc21,EC50,[1],1.13 µM (active)
same,AC50,[2],15.4 µM (active)
Cc1cc(C(=O)OCC(=O)N2CCc3ccccc32)c(C)o1,EC50,[3],5.44 µM (active)
same,EC50,[4],13.4 µM (active)
same,EC50,[5],21.6 µM (active)
